“And” between values parts separate entries of the source, which are not always exact repeats. Equal values may be shown once. One block for each molecule: values may come before it.
Legend:
[1] = Chemical stability of dexbudesonide HFA 134a composition of Example 4 in epoxy-phenol lacquered aluminium cans (HPLC, epimeric distribution); type: physicochemical
Procedure: A composition containing 48 mg of dexbudesonide (200 μg/dose), 15% (w/w) ethanol, 1.3% (w/w) glycerol in HFA 134a to 12 ml can was distributed in epoxy-phenol lacquered aluminium cans and was stored at 40° C.

[2] = Chemical stability of dexbudesonide HFA 227 compositions of Example 5 in anodised aluminium cans (HPLC, epimeric distribution); type: physicochemical; conditions: for % Residual dexbudesonide / % residual dexbudesonide relative to t = 0: HFA 227, anodised aluminium cans
Procedure: Compositions containing 7.2, 12, 16.8 mg of dexbudesonide (corresponding to 30, 50 and 70 μg/dose respectively), ethanol, 0.9 (w/w) PEG 400 or isopropyl myristate (IPM) in HFA 227 to 12 ml can was distributed in aluminium anodised cans and was stored 70 days at 50° C.

[3] = Fine particle dose of dexbudesonide solution compositions, Andersen Cascade Impactor; type: physicochemical; conditions: for MMAD: low volatility compound 0.9% (w/w); for FPF: Fine particle dose/Delivered dose × 100; for Delivered dose: ex actuator; for FPD: particles lower than 4.7 μm, average of 10 shots; for Metered dose: sum of delivered dose and actuator residue
Procedure: The fine particle dose (FPD: weight of particles having an aerodynamic diameter lower than 4.7 μm) of dexbudesonide solution compositions in HFA 134a or HFA 227, prepared following the examples 4 and 5, was determined.
The experiments were performed using the Andersen Cascade Impactor and the data obtained are average values from 10 shots.
The FPD gives a direct measure of the mass of particles within the specified size range and is closely related to the efficacy of the product.

[4] = Chemical stability of flunisolide HFA 134a composition of Example 7 in cans of different types (percent drug remaining, HPLC); type: physicochemical
Procedure: A composition containing 60 mg of flunisolide (250 μg/dose), […], 1% (w/w) glycerol in HFA 134a to 12 ml/can was distributed in anodised aluminium, glass cans or in cans having different internal coatings and were stored for 41 days at 50° C.

[5] = as above; type: physicochemical; remark: listed apart in the source
[6] = flunisolide/ethanol/HFA compositions of WO 95/17195, Table 8 of that application; cited from earlier work
[7] = Effect of different acids on chemical stability of the composition of Example 1 in epoxy-phenol resin (4) coated cans; type: physicochemical; conditions: epoxy-phenol (4) coated cans
Procedure: The effect of different acids on the chemical stability of the composition of Example 1 was studied.
The stability of the compositions was tested after 1, 2 and 5 months storage at 40° C. in epoxy-phenol resin (4) coated cans.

[8] = metered dose 30 μg, ethanol 5% (w/w), IPM 0.9% (w/w), t = 70 days at 50° C.
[9] = metered dose 30 μg, ethanol 5% (w/w), PEG 400 0.9% (w/w), t = 70 days at 50° C.
[10] = metered dose 50 μg, ethanol 8% (w/w), IPM 0.9% (w/w), t = 70 days at 50° C.
[11] = metered dose 50 μg, ethanol 8% (w/w), PEG 400 0.9% (w/w), t = 70 days at 50° C.
[12] = metered dose 70 μg, ethanol 7% (w/w), IPM 0.9% (w/w), t = 70 days at 50° C.
[13] = metered dose 70 μg, ethanol 7% (w/w), PEG 400 0.9% (w/w), t = 70 days at 50° C.
[14] = HFA 134a, 60 μg/shot, ethanol 8% (w/w), IPM 0.9% (w/w)
[15] = HFA 227, 63 μg/shot, ethanol 7% (w/w), IPM 0.9% (w/w)
[16] = HFA 227, 63 μg/shot, ethanol 7% (w/w), PEG 400 0.9% (w/w)
[17] = can: Anodised aluminum, t = 41 days at 50° C.
[18] = can: Epoxy phenol resin (2), t = 41 days at 50° C.
[19] = can: Epoxy phenol resin (3), t = 41 days at 50° C.
[20] = can: Anodised aluminum, t = 93 days (50° C. per title)
[21] = can: Epoxy phenol resin (1), t = 41 days at 50° C.
[22] = can: Epoxy phenol resin (1), t = 93 days (50° C. per title)
[23] = can: Epoxy phenol resin (2), t = 93 days (50° C. per title)
[24] = can: Epoxy phenol resin (3), t = 93 days (50° C. per title)

SMILES: CCC[C@@H]1O[C@@H]2C[C@H]3[C@@H]4CCC5=CC(=O)C=C[C@]5(C)[C@H]4[C@@H](O)C[C@]3(C)[C@]2(C(=O)CO)O1 [dexbudesonide]
- percent drug remaining ([1]; 200 μg/dose, 15% (w/w) ethanol, 1.3% (w/w) glycerol, HFA 134a, 8 months at 40° C., average of two tests): 95.4%
- epimeric distribution ([1]; Example 4 composition, stored at 40° C.): no transfer from the 22R to the 22S epimer
- epimeric distribution ([2]; Example 5 compositions, anodised aluminium cans, 70 days at 50° C.): no transfer from the 22R to the 22S epimer
- % Residual dexbudesonide ([2]; metered dose 30 μg, ethanol 5% (w/w), IPM 0.9% (w/w), t = 0 days): 98.1%
- % Residual dexbudesonide [2, 8]: 96.8%
- % residual dexbudesonide relative to t = 0 [2, 8]: (98.7) %
- % Residual dexbudesonide ([2]; metered dose 30 μg, ethanol 5% (w/w), PEG 400 0.9% (w/w), t = 0 days): 95.8%
- % Residual dexbudesonide [2, 9]: 95.8%
- % residual dexbudesonide relative to t = 0 [2, 9]: (100) %
- % Residual dexbudesonide ([2]; metered dose 50 μg, ethanol 8% (w/w), IPM 0.9% (w/w), t = 0 days): 98.0%
- % Residual dexbudesonide [2, 10]: 99.4%
- % residual dexbudesonide relative to t = 0 [2, 10]: (101) %
- % Residual dexbudesonide ([2]; metered dose 50 μg, ethanol 8% (w/w), PEG 400 0.9% (w/w), t = 0 days): 99.0%
- % Residual dexbudesonide [2, 11]: 98.0%
- % residual dexbudesonide relative to t = 0 [2, 11]: (98.9) %
- % Residual dexbudesonide ([2]; metered dose 70 μg, ethanol 7% (w/w), IPM 0.9% (w/w), t = 0 days): 100.4%
- % Residual dexbudesonide [2, 12]: 96.3%
- % residual dexbudesonide relative to t = 0 [2, 12]: (96.0) %
- % Residual dexbudesonide ([2]; metered dose 70 μg, ethanol 7% (w/w), PEG 400 0.9% (w/w), t = 0 days): 95.7%
- % Residual dexbudesonide [2, 13]: 93.75%
- % residual dexbudesonide relative to t = 0 [2, 13]: (98.0) %
- MMAD ([3]; HFA 134a solution formulation, 14.4 mg/can (60 μg/shot), ethanol 8% (w/w)): 2.0 μm
- FPF [3, 14]: 73.6% and 77.4%
- Delivered dose [3, 14]: 54.2 µg and 50.9 µg
- FPD [3, 14]: 39.9 µg and 39.4 µg
- Metered dose [3, 14]: 57.9 µg and 53.2 µg
- FPF [3, 15]: 75.5%
- Delivered dose [3, 15]: 59.7 µg
- FPD [3, 15]: 45.0 µg
- Metered dose [3, 15]: 63.9 µg
- FPF [3, 16]: 78.9%
- Delivered dose [3, 16]: 61.5 µg
- FPD [3, 16]: 48.5 µg
- Metered dose [3, 16]: 65.5 µg
- MMAD ([3]; HFA 227 solution formulation, 15.12 mg/can (63 μg/shot), ethanol 7% (w/w)): 2.0 μm

- % RESIDUAL FLUNISOLIDE ([4]; can: Anodised aluminum, t = 0): 101.6%
- % RESIDUAL FLUNISOLIDE [4, 17]: 100.4%
- % RESIDUAL FLUNISOLIDE RELATIVE TO t = 0 [4, 17]: (98.8) %
- % RESIDUAL FLUNISOLIDE ([4]; can: Epoxy phenol resin (1), t = 0): 98.4%
- % RESIDUAL FLUNISOLIDE ([4]; can: Epoxy phenol resin (2), t = 0): 101.9%
- % RESIDUAL FLUNISOLIDE [4, 18]: 99.7%
- % RESIDUAL FLUNISOLIDE RELATIVE TO t = 0 [4, 18]: (97.8) %
- % RESIDUAL FLUNISOLIDE [4, 19]: 99.2%
- % RESIDUAL FLUNISOLIDE [5, 20]: 100.7%
- % RESIDUAL FLUNISOLIDE RELATIVE TO t = 0 [5, 20]: (99.1) %
- % RESIDUAL FLUNISOLIDE [5, 21]: 99.2%
- % RESIDUAL FLUNISOLIDE RELATIVE TO t = 0 [5, 21]: (101) %
- % RESIDUAL FLUNISOLIDE [5, 22]: 101.4%
- % RESIDUAL FLUNISOLIDE RELATIVE TO t = 0 [5, 22]: (103) %
- % RESIDUAL FLUNISOLIDE [5, 23]: 101.9%
- % RESIDUAL FLUNISOLIDE RELATIVE TO t = 0 [5, 23]: (100) %
- % RESIDUAL FLUNISOLIDE ([5]; can: Epoxy phenol resin (3), t = 0): 101.7%
- % RESIDUAL FLUNISOLIDE RELATIVE TO t = 0 [5, 19]: (97.5) %
- % RESIDUAL FLUNISOLIDE [5, 24]: 101.2%
- % RESIDUAL FLUNISOLIDE RELATIVE TO t = 0 [5, 24]: (99.6) %
- % RESIDUAL FLUNISOLIDE ([5]; can: Glass type III, t = 93 days (50° C. per title)): 97.5%
SMILES: CC1(C)O[C@@H]2C[C@H]3[C@@H]4C[C@H](F)C5=CC(=O)C=C[C@]5(C)[C@H]4[C@@H](O)C[C@]3(C)[C@]2(C(=O)CO)O1 [flunisolide]
- decomposition in containers [6]: decomposes only in plastic cans

SMILES: CC(C)[N+]1(C)[C@@H]2CC[C@H]1CC(OC(=O)C(CO)c1ccccc1)C2.[Br-] (some centres unmarked) [ipratropium bromide]
- % RESIDUAL IPBr ([7]; acid: Ascorbic, t = 0): 119%
- % RESIDUAL IPBr ([7]; acid: Ascorbic, t = 1 month at 40° C.): 113%
- % RESIDUAL IPBr ([7]; acid: Ascorbic, t = 2 months at 40° C.): 112%
- % RESIDUAL IPBr ([7]; acid: Ascorbic, t = 5 months at 40° C.): 110%
- % RESIDUAL IPBr ([7]; acid: Citric (0.07% w/w), t = 1 month at 40° C.): 98%
- % RESIDUAL IPBr ([7]; acid: Citric (0.3% w/w), t = 2 months at 40° C.): 100%
- % RESIDUAL IPBr ([7]; acid: Citric (0.6% w/w), t = 0): 98%
- % RESIDUAL IPBr ([7]; acid: Citric (0.6% w/w), t = 1 month at 40° C.): 98%
- % RESIDUAL IPBr ([7]; acid: Hydrochloric (4 μl-1 N), t = 0): 101%
- % RESIDUAL IPBr ([7]; acid: Hydrochloric (4 μl-1 N), t = 1 month at 40° C.): 100%
- % RESIDUAL IPBr ([7]; acid: Hydrochloric (4 μl-1 N), t = 2 months at 40° C.): 104%
- % RESIDUAL IPBr ([7]; acid: Hydrochloric (10 μl-1 N), t = 0): 101%
- % RESIDUAL IPBr ([7]; acid: Hydrochloric (10 μl-1 N), t = 1 month at 40° C.): 98%
- % RESIDUAL IPBr ([7]; acid: Hydrochloric (10 μl-1 N), t = 2 months at 40° C.): 98%
- % RESIDUAL IPBr ([7]; acid: Hydrochloric (20 μl-1 N), t = 0): 100%
- % RESIDUAL IPBr ([7]; acid: Hydrochloric (20 μl-1 N), t = 2 months at 40° C.): 98%
- % RESIDUAL IPBr ([7]; acid: None, t = 2 months at 40° C.): 98%
